Data set [1] can be described thus: Stability of 2'-MPA after HPLC purification in presence of excess acetate. The data set is classed as physicochemical. The following applies: excess acetate ion, upon concentration of HPLC effluent, to paclitaxel.
The nature of data set [2]: Stability of paclitaxel 2'-methylpyridinium acetate (HPLC). The data set is classed as physicochemical. As to the method: The onium salt paclitaxel-2'-MPA was prepared by the method of Nicolaou et al., Angew. Chim. Int. Engl., 33:1583-1587 ([…]). A 2.40 mg/ml solution of the paclitaxel-2'-MPA was prepared by dissolving the salt (10.2 mg) in a solution of water (3.024 ml) and polyethylene glycol (1.234 ml). Samples of this solution were frozen. The frozen samples were slowly warmed to room temperature and homogenized with CH3 CN (50 μl). An aliquot (50 μl) was removed and diluted to a final volume of 200 μl with deionized H2 O and analyzed via HPLC (20 μl injection).
Analysis conditions were as follows: […]
Mobile phase: 50% MeOH/80 mM NH4 OAc

The subject of data set [3] is neoplasms including breast. The following applies: several types of neoplasms including breast; cited from earlier work.
Data set [4] can be described thus: Water solubility of paclitaxel and of its prodrugs (general statements). The data set is classed as physicochemical. The conditions noted are these: listed advantage of the novel salts.
A short description of data set [5]: Aqueous stability of 2'-MPM in H2O and 0.2M NaCl. In kind it is physicochemical. As to the method:
Aqueous Stability: The stability of the prodrug in H2 O and 0.2M NaCl was examined at both room temperature and under refrigerated conditions. Samples in H2 O (0.54 mg in 2 ml) and NaCl (0.57 mg in 2 ml) at room temperature were examined at two minute time intervals (0 through 12 minutes), 2 hours and 24 hours. […] At 4° C. the product concentration was unchanged at 24 and 48 hours but decreased to 90% after 72 hours. […] At 4° C. the product concentration was unchanged at 24 hours, was 91% at 48 hours and was 88% at 72 hours.

A short description of data set [6]: Solubility of 2'-MPM in deionized water. The data set is classed as physicochemical. As to the method:
Solubility: Deionized water (0.5 ml) was added to three samples of the 2'-MPM (1.54 mg, 0.97 mg and 0.80 mg) and the flask sonicated for approximately one (1) minute.

Data set [7] is described as follows: Extraction of 2'-MPM from water into CH2Cl2. The data set is classed as physicochemical. The following applies: three samples (1.2, 1.0, 0.98 mg) in water (1 ml) stirred with CH2Cl2 (1 ml). As to the method: Extraction: Three samples (1.2,1.0 and 0.98 mg) were dissolved in water (1 ml) and vigorously stirred with CH2 Cl2 (1 ml). The organic phase was transferred to a clean, tared vial and concentrated in vacuo. The residue was weighed and compared to the theoretical input to gauge the effectiveness of the extraction procedure. Average return for this extraction was about 44% of theoretical.

Where [8] appears, read: freshly prepared solution, 0.53 mg/ml in CH3CN.

“And” between values parts separate entries of the source, which are not always exact repeats. Identical values can stand only once. Counter-ions that a name gives are not always drawn. Like-named read-outs stand apart in the source and are kept apart here.

Regarding `CC(=O)O[C@H]1C(=O)[C@@]2(C)[C@H]([C@H](OC(=O)c3ccccc3)[C@]3(O)C[C@H](OC(=O)[C@H](Oc4cccc[n+]4C)[C@@H](NC(=O)c4ccccc4)c4ccccc4)C(C)=C1C3(C)C)[C@]1(OC(C)=O)CO[C@@H]1C[C@@H]2O` [2'-MPA, Paclitaxel 2'-Methylpyridinium Acetate], the “stability on HPLC purification” value in data set [1] is recorded as “decomposes rapidly”. Moreover, the “Paclita. % (paclitaxel in 2'-MPA sample)” value in data set [2] (4° C., 1 Hour) came to 15%; in data set [2] (4° C., 2 Weeks) it was 9%; in data set [2] (4° C., 6 Hours) it was 11%; in data set [2] (4° C., 18 Hours) it was 10%; in data set [2] (4° C., 42 Hours), 9%; in data set [2] (4° C., 66 Hours) it was 11%. For the same compound, the “Paclita. % (paclitaxel in 2'-MPA sample)” value in data set [2] (Room Temperature, 1 Hour) is given as 14%; in data set [2] (Room Temperature, 6 Hours), 14%; in data set [2] (Room Temperature, 42 Hours), 17%; in data set [2] (Room Temperature, 66 Hours), 13%; in data set [2] (Room Temperature, 90 Hours) it was 15%. Moreover, the “Unkno. % (unknown in 2'-MPA sample)” value is on record as “No peak eluted” in data set [2] (4° C., 1 Hour); 10% in data set [2] (4° C., 2 Weeks); 14% in data set [2] (4° C., 6 Hours); 17% in data set [2] (4° C., 18 Hours); 12% in data set [2] (4° C., 42 Hours); 16% in data set [2] (4° C., 66 Hours). In addition, the “Unkno. % (unknown in 2'-MPA sample)” value in data set [2] (Room Temperature, 1 Hour) is on record as 8%; in data set [2] (Room Temperature, 6 Hours), 8%; in data set [2] (Room Temperature, 42 Hours), 10%; in data set [2] (Room Temperature, 66 Hours) it was 8%; in data set [2] (Room Temperature, 90 Hours), 12%. The “2'-MPA peak” value in data set [2] (setting [8]) came out at 75%. Further, the “Paclitaxel peak in 2'-MPA sample” value in data set [2] (setting [8]) worked out at 15%. For the same compound, the “Unknown peak in 2'-MPA sample” value in data set [2] (setting [8]) is given as 10%. Moreover, the remaining at 1 h in data set [2] (water/polyethylene glycol, 4° C., 1 Hour, read-out: 2'-MPA %) turned out to be 85%; in data set [2] (water/polyethylene glycol, Room Temperature, 1 Hour, read-out: 2'-MPA %), 78%. Further, the remaining at 336 h in data set [2] (water/polyethylene glycol, 4° C., 2 Weeks, read-out: 2'-MPA %) is 79%. Besides, the remaining at 6 h in data set [2] (water/polyethylene glycol, 4° C., 6 Hours, read-out: 2'-MPA %) stood at 75%; in data set [2] (water/polyethylene glycol, Room Temperature, 6 Hours, read-out: 2'-MPA %), 78%. The remaining at 18 h came out at 73% in data set [2] (water/polyethylene glycol, 4° C., 18 Hours, read-out: 2'-MPA %); 69% in data set [2] (water/polyethylene glycol, Room Temperature, 18 Hours, peaks of paclitaxel and unknown coeluted, read-out: 2'-MPA %). Further, the remaining at 42 h in data set [2] (water/polyethylene glycol, 4° C., 42 Hours, read-out: 2'-MPA %) was found to be 79%; in data set [2] (water/polyethylene glycol, Room Temperature, 42 Hours, read-out: 2'-MPA %), 73%. The remaining at 66 h in data set [2] (water/polyethylene glycol, 4° C., 66 Hours, read-out: 2'-MPA %) was found to be 73%; in data set [2] (water/polyethylene glycol, Room Temperature, 66 Hours, read-out: 2'-MPA %), 79%. Moreover, the remaining at 90 h in data set [2] (water/polyethylene glycol, Room Temperature, 90 Hours, read-out: 2'-MPA %) turned out to be 73%.

For `CC(=O)O[C@H]1C(=O)[C@@]2(C)[C@H]([C@H](OC(=O)c3ccccc3)[C@]3(O)C[C@H](OC(=O)[C@H](O)[C@@H](NC(=O)c4ccccc4)c4ccccc4)C(C)=C1C3(C)C)[C@]1(OC(C)=O)CO[C@@H]1C[C@@H]2O` [Paclitaxel, paclitaxel], in data set [3], the effectiveness in chemotherapy entry was “effective for chemotherapy for several types of neoplasms including breast”.

Take `CC(=O)O[C@H]1C(=O)[C@@]2(C)[C@H]([C@H](OC(=O)c3ccccc3)[C@]3(O)C[C@H](OC(=O)[C@H](Oc4cccc[n+]4C)[C@@H](NC(=O)c4ccccc4)c4ccccc4)C(C)=C1C3(C)C)[C@]1(OC(C)=O)CO[C@@H]1C[C@@H]2O` [2'-MPM, Paclitaxel-2'-Methylpyridinium Mesylate]: the “solubility compared with paclitaxel” value in data set [4] is on record as “much higher than for paclitaxel”. Also, the product concentration result in data set [5] (0.2M NaCl, 4° C., 24 hours) is given as “unchanged”. In addition, the remaining at 48 h in data set [5] (0.2M NaCl, 4° C., 48 hours, read-out: product concentration) was 91%. In addition, the remaining at 72 h in data set [5] (0.2M NaCl, 4° C., read-out: product concentration) was 88%; in data set [5] (H2O, 4° C., read-out: product concentration), 90%; in data set [5] (water, aqueous solution, 4° C., read-out: MPM salt remaining (summary statement)), 88 to 91%. Moreover, in data set [5] (0.2M NaCl, room temperature, 2 hours, read-out: drop in product concentration), the degraded at 2 h fell in the range of 1 to 2%. Further, the remaining at 24 h in data set [5] (0.2M NaCl, room temperature, 24 hours, read-out: product concentration) worked out at 70%; in data set [5] (H2O, room temperature, 24 hours, read-out: product concentration), 56%. For the same compound, the Aqueous stability entry in data set [5] (0.2M NaCl, room temperature, first ten minutes) is “no apparent change”; in data set [5] (H2O, room temperature, 2 hours), “relatively unchanged”. Further, the “stability compared with 2'-MPA salt” value in data set [5] (aqueous solution, 4° C.) is recorded as “significantly more stable than the 2'-MPA salt”. Moreover, in data set [5] (aqueous solution, 4° C., 24 hours), the “MPM salt remaining (summary statement)” value is reported as “unchanged”. Also, in data set [6] (deionized water), the “upper limit of solubility” value is reported as “has not been attained as yet”. The “Solubility: sample amount for which solution was attained” value in data set [6] (deionized water 0.5 ml, sonicated approx. 1 min) was 0.97 mg and 0.80 mg. Also, in data set [6] (largest sample (1.54 mg), on top of 0.5 ml deionized water), the “Solubility: additional water required to provide a free-flowing solution” value was 0.1 mL. For the same compound, the “Average return for extraction into CH2Cl2” value in data set [7] is given as “about 44 % of theoretical”.

The values are drawn from patent US6153756A, “Soluble prodrugs of paclitaxel” (priority 1997, dated 2000).
